Data as given in US7084117B2, “Pharmaceutical compositions which inhibit vascular proliferation and method of use thereof” (Societe de Conseils de Recherches et d'Applications …, priority 2001, dated 2006).

What was measured:
[1] = system: immortalized human microvascular endothelial HMEC-1 cells; experiment: Cytotoxicity assay (cell proliferation); format: cell-based; details: 10^−6 M (+VEGF 10 ng/mL), 72 hours
Experimental: The immortalized human microvascular endothelial cell line HMEC-1, characterized by Ades, et al., (Journal of Investigative Dermatology 1992, 99: 683–690), was maintained in Medium 199, supplemented with 10% heat-inactivated fetal bovine serum (FBS), penicillin (50 IU/mL) and hydrocortisone (100 μg/mL). Cells were routinely grown in 75 cm2 gelatin-coated tissue culture flasks and kept in a humidified atmosphere of 5% CO2 at 37° C. Cells were harvested with a solution of 0.25% trypsin-0.03% EDTA when they were in long phase of growth and maintained at the above-described culture conditions for all experiments.
In vitro chemosensitivity testing was performed on single-cell suspensions of HEMC-1 cells (5×10^3 cells/well) plated in 96-well gelatin-coated sterile plastic plates and allowed to attach overnight. […] The treatments were scheduled so that each peptide was represented by at least nine wells. At the end of the experiment, cells were rinsed with phosphate buffered saline (PBS), harvested with trypsin/EDTA, and counted with an hemocytometer. Results are expressed as the percentage of cell proliferation versus controls and are the mean of three separate experiments±S.E repeated thrice.

[2] = system: human placental vessel explants (capillaries sprouts); experiment: In vitro cultures of human placental vessels, sprouting index by image analysis; format: cell-based; details: 10^−6 M, treated every two days for 28 days
Experimental: The experimental procedure described by Brown et al., (Laboratory Investigation 1996, 75: 539–555) was followed and modified in the present study. Immediately after the spontaneous delivery, the placenta was collected in sterile conditions and superficial blood vessels, approximately […] in diameter and from 1 to 5 cm in length, were excised. Vessel explants were placed in phosphate buffered saline (PBS) solution containing […] of amphotericin B and 50 μg/mL of gentamycin and were cut into approximately 1-mm fragments. […]
The image analysis procedures described by Bocci et al., (Cancer Chemotherapy Pharmacology 1999, 43: 205–212), were adopted for the present study. […] The true color image analysis software package KS 300 v.1.2 (Kontron Elektronik GmbH, Eching, Germany) was run for interactive manipulation, quantification of the images and data collection. […] In the fibrin culture of placental vessel explants the mean gray level of the sprouting area was measured and the sprouting index (SI) was defined as: Sprouting index=((sprouting area/mean gray level of sprouting area)/perimeter of explant)×100. Results are expressed as the percentage of sprouting index+/−S.E. versus controls.

In the case of `Cc1cc(C)c(/C=C2\C(=O)Nc3ccccc32)[nH]1` [SU5416, 3-((2,4-dimethylpyrrol-5-yl)methylidenyl)-2-indolinone], the cell growth block [1] is reported as 56.2% and the “sprouting index (SI) as compared to untreated controls” value [2] is reported as 32.92±9.7%.
